Common to all, as to assay type: in vivo
Holding throughout (settings): 312 h, rate 250 g/ha, evaluated after 13 days, 100=total damage to plant, 0=no damage to plant

The subject of experiment [1] is Echinochloa crus-galli (ECHCG). Description: Pre-emergence herbicidal activity, glasshouse pot test. Here is the method:
(§1) Seeds of a variety of test species were sown in standard soil in pots. After cultivation for one day (pre-emergence) or after 8 days cultivation (post-emergence) under controlled conditions in a glasshouse (at 24/16° C., day/night; 14 hours light; 65% humidity), the plants were sprayed with an aqueous spray solution derived from the formulation of the technical active ingredient in acetone/water (50:50) solution containing 0.5% Tween 20 (polyoxyethelyene sorbitan monolaurate, CAS RN 9005-64-5). The test plants were then grown in a glasshouse under controlled conditions in a glasshouse (at 24/16° C., day/night; 14 hours light; 65% humidity) and watered twice daily. After 13 days for pre and post-emergence, the test was evaluated (100=total damage to plant; 0=no damage to plant). Test Plants: Lolium perenne (LOLPE), Alopecurus myosuroides (ALOMY), Echinochloa crus-galli (ECHCG), and Avena fatua (AVEFA). Pre-Emergence Activity

Experiment [2] concerns Alopecurus myosuroides (ALOMY). The experiment is described as above. The procedure: as §1
Experiment [3] has as its system Lolium perenne (LOLPE). Described as above. Here is the method:
as §1

For experiment [4], the system named is Avena fatua (AVEFA). The description is as above. Here is the method:
as §1

Experiment [5] concerns Echinochloa crus-galli (ECHCG). Description: Post-emergence herbicidal activity, glasshouse pot test. The procedure: as §1, with “Post-Emergence” for “Pre-Emergence”
In experiment [6] the test system is Alopecurus myosuroides (ALOMY). Described as above. The procedure:
as §1, with “Post-Emergence” for “Pre-Emergence”

For experiment [7], the system named is Lolium perenne (LOLPE). Described as above. The procedure: as §1, with “Post-Emergence” for “Pre-Emergence”
The subject of experiment [8] is Avena fatua (AVEFA). Described as above. Here is the method: as §1, with “Post-Emergence” for “Pre-Emergence”

Structures are written as SMILES.

As a reminder, the pest or weed control is how far the test organism was held down. A low value points to a weak effect.

Turning to `CCc1ccc(Oc2ncc(C(F)(F)F)cc2F)cc1C1=C(O)C2C(C1=O)[C@H]1CC[C@@H]2CC1` (stereo partly shown) [Compound A-89], the pest or weed control at 250 g/ha in experiment [1] turned out to be 100%; in experiment [2], 50%; in the experiment on Lolium perenne (LOLPE) [3], 100%; in the experiment with Avena fatua (AVEFA) [4], 70%; in experiment [5], 100%; in experiment [6] it was 100%. The pest or weed control at 250 g/ha in the experiment on Lolium perenne (LOLPE) [7] and with Avena fatua (AVEFA) [8] was 100% in each case.

In the case of `CCc1ccc(Oc2cnc3cc(Cl)ccc3n2)cc1C1=C(O)[C@H]2[C@@H](C1=O)[C@@H]1CC[C@H]2O1` [Compound A-51], the pest or weed control at 250 g/ha in experiment [1] is 90%; in experiment [2], 100%; in the experiment with Lolium perenne (LOLPE) [3], 100%; with Avena fatua (AVEFA) [4], 90%; in experiment [5], 90%; in experiment [6], 100%. The pest or weed control at 250 g/ha in the experiment with Lolium perenne (LOLPE) [7] came out at 100%; in the experiment on Avena fatua (AVEFA) [8] it was 90%.

As to `CCc1ccc(Oc2nc3c(Cl)cc(Cl)cc3s2)cc1C1=C(O)CCC1=O` [Compound A-77], the pest or weed control at 250 g/ha was determined as 90% in experiment [1]; 20% in experiment [2]; 20% in the experiment on Lolium perenne (LOLPE) [3]; 0% in the experiment with Avena fatua (AVEFA) [4]; 80% in experiment [5]; 20% in experiment [6]. Further, the pest or weed control at 250 g/ha in the experiment on Lolium perenne (LOLPE) [7] came out at 30%; with Avena fatua (AVEFA) [8], 0%.

With `CCc1ccc(Oc2ccc(C(F)(F)F)cc2[N+](=O)[O-])cc1C1=C(O)CCC1=O` [Compound A-76], the pest or weed control at 250 g/ha in experiment [1] stood at 100%; in experiment [2], 20%; in the experiment with Lolium perenne (LOLPE) [3], 50%; in the experiment on Avena fatua (AVEFA) [4], 0%; in experiment [5], 80%; in experiment [6], 50%. The pest or weed control at 250 g/ha in the experiment with Lolium perenne (LOLPE) [7] was found to be 30%; in the experiment on Avena fatua (AVEFA) [8], 80%.

Turning to `CCc1ccc(Oc2ccc(F)cc2)cc1C1=C(O)[C@H]2[C@H]3CC[C@H](C3)[C@H]2C1=O` [Compound A-23], the pest or weed control at 250 g/ha in experiment [1] came to 80%; in experiment [2], 0%; with Lolium perenne (LOLPE) [3], 30%; with Avena fatua (AVEFA) [4], 0%; in experiment [5] it was 60%; in experiment [6], 50%. Further, the results for the pest or weed control at 250 g/ha with Lolium perenne (LOLPE) [7] and with Avena fatua (AVEFA) [8] were 20% and 0%, respectively.

Take `CCc1ccc(Oc2ccc(Cl)c(F)c2)cc1C1=C(O)[C@H]2[C@H]3CC[C@H](C3)[C@H]2C1=O` [Compound A-26]: the pest or weed control at 250 g/ha was 80% in experiment [1]; 0% in experiment [2]; 20% in the experiment with Lolium perenne (LOLPE) [3]; 0% in the experiment on Avena fatua (AVEFA) [4]; 80% in experiment [5]; 60% in experiment [6]. The pest or weed control at 250 g/ha is 30% in the experiment with Lolium perenne (LOLPE) [7] and 80% in the experiment on Avena fatua (AVEFA) [8].

On to `CCc1ccc(Oc2ccc(Cl)c(Cl)c2)cc1C1=C(O)CCC1=O` [Compound A-17, 2-[5-(3,4-dichlorophenoxy)-2-ethylphenyl]cyclopentane-1,3-dione], for which the pest or weed control at 250 g/ha in experiment [1] worked out at 30%; in experiment [2], 10%; in the experiment with Lolium perenne (LOLPE) [3], 10%; with Avena fatua (AVEFA) [4], 20%; in experiment [5], 70%; in experiment [6] it was 10%. In addition, the pest or weed control at 250 g/ha is 30% in the experiment with Lolium perenne (LOLPE) [7] and 10% with Avena fatua (AVEFA) [8].

For `CCc1ccc(Oc2ccc(F)cc2)cc1C1=C(O)C2C(C1=O)[C@H]1CC[C@@H]2CC1` (stereo partly shown) [Compound A-30], the pest or weed control at 250 g/ha in experiment [1] was determined as 80%; in experiment [2] it was 30%; with Lolium perenne (LOLPE) [3], 70%; in the experiment with Avena fatua (AVEFA) [4], 20%; in experiment [5], 100%; in experiment [6], 60%. For the same compound, the pest or weed control at 250 g/ha in the experiment with Lolium perenne (LOLPE) [7] turned out to be 10%; with Avena fatua (AVEFA) [8], 20%.

For `CCc1ccc(Oc2ccc(Br)c(Cl)c2)cc1C1=C(O)[C@H]2[C@@H](C1=O)[C@@H]1CC[C@H]2O1` [Compound A-48], the pest or weed control at 250 g/ha in experiment [1] worked out at 90%; in experiment [2], 80%; in the experiment on Lolium perenne (LOLPE) [3], 80%; in the experiment on Avena fatua (AVEFA) [4] it was 80%; in experiment [5], 90%; in experiment [6], 80%. For the same compound, the pest or weed control at 250 g/ha with Lolium perenne (LOLPE) [7] and in the experiment with Avena fatua (AVEFA) [8] was 80% throughout.

`CCc1ccc(Oc2ccc(Cl)cc2Cl)cc1C1=C(O)[C@H]2[C@@H](C1=O)[C@@H]1CC[C@H]2O1` [Compound A-44]: the pest or weed control at 250 g/ha was determined as 80% in experiment [1]; 80% in experiment [2]; 90% in the experiment on Lolium perenne (LOLPE) [3]; 80% in the experiment on Avena fatua (AVEFA) [4]; 80% in experiment [5]; 80% in experiment [6]. The pest or weed control at 250 g/ha in the experiment with Lolium perenne (LOLPE) [7] is 90%; in the experiment on Avena fatua (AVEFA) [8] it was 80%.

For the compound `CCc1ccc(Oc2ncc(Cl)cc2C(F)(F)F)cc1C1=C(O)CCC1=O` [Compound A-78], the pest or weed control at 250 g/ha in experiment [1] is 100%; in experiment [2], 70%; in the experiment on Lolium perenne (LOLPE) [3], 100%; in the experiment with Avena fatua (AVEFA) [4], 70%; in experiment [5] it was 100%; in experiment [6], 100%. The pest or weed control at 250 g/ha in the experiment with Lolium perenne (LOLPE) [7] and with Avena fatua (AVEFA) [8] was 90% each time.

As for `CCc1ccc(Oc2ccc(C#N)c(Cl)c2)cc1C1=C(O)CCC1=O` [Compound A-56], the pest or weed control at 250 g/ha in experiment [1] amounted to 60%; in experiment [2], 30%; with Lolium perenne (LOLPE) [3], 50%; with Avena fatua (AVEFA) [4], 20%; in experiment [5], 70%; in experiment [6], 20%. In addition, the pest or weed control at 250 g/ha came out at 20% in the experiment on Lolium perenne (LOLPE) [7] and 0% in the experiment with Avena fatua (AVEFA) [8].

For the compound `CCc1ccc(Oc2ccc(Br)cc2F)cc1C1=C(O)C2C(C1=O)[C@H]1CC[C@@H]2CC1` (stereo partly shown) [Compound A-34], the pest or weed control at 250 g/ha in experiment [1] was 70%; in experiment [2], 20%; in the experiment on Lolium perenne (LOLPE) [3], 50%; in the experiment with Avena fatua (AVEFA) [4] it was 30%; in experiment [5], 90%; in experiment [6], 80%. Also, the pest or weed control at 250 g/ha stood at 40% in the experiment on Lolium perenne (LOLPE) [7] and 90% in the experiment with Avena fatua (AVEFA) [8].

Regarding `CCc1ccc(Oc2ncc(Cl)cc2F)cc1C1=C(O)[C@H]2[C@H]3CC[C@H](C3)[C@H]2C1=O` [Compound A-11], the pest or weed control at 250 g/ha was determined as 100% in experiment [1]; 30% in experiment [2]; 80% with Lolium perenne (LOLPE) [3]; 50% with Avena fatua (AVEFA) [4]; 100% in experiment [5]; 80% in experiment [6]. Moreover, the pest or weed control at 250 g/ha in the experiment on Lolium perenne (LOLPE) [7] turned out to be 70%; in the experiment on Avena fatua (AVEFA) [8] it was 90%.

Source of the values: patent US8895474B2, “Herbicidally active cyclopentanediones and derivatives thereof, and their use in controlling weeds” (Syngenta Limited, priority 2009, dated 2014).
